From patent publication US5866548A, “Caged membrane-permeant inositol phosphates” (priority 1996, dated 1999)
Entries after “also recorded” stand apart in the source; their conditions may differ.

Experiments:
[1] = target: T1, IP3 receptor (IP3 R) (Bos taurus, UniProt Q9TU34); test: [3H]IP3 binding assay, bovine cerebellum microsomal fractions; conditions: for affinity to IP3 R / binding to cerebellar microsomes (in words): without photolysis
T1 construct: from tissue; host or cells: bovine cerebellum microsomal fractions
T1 sequence (Q9TU34 whole entry): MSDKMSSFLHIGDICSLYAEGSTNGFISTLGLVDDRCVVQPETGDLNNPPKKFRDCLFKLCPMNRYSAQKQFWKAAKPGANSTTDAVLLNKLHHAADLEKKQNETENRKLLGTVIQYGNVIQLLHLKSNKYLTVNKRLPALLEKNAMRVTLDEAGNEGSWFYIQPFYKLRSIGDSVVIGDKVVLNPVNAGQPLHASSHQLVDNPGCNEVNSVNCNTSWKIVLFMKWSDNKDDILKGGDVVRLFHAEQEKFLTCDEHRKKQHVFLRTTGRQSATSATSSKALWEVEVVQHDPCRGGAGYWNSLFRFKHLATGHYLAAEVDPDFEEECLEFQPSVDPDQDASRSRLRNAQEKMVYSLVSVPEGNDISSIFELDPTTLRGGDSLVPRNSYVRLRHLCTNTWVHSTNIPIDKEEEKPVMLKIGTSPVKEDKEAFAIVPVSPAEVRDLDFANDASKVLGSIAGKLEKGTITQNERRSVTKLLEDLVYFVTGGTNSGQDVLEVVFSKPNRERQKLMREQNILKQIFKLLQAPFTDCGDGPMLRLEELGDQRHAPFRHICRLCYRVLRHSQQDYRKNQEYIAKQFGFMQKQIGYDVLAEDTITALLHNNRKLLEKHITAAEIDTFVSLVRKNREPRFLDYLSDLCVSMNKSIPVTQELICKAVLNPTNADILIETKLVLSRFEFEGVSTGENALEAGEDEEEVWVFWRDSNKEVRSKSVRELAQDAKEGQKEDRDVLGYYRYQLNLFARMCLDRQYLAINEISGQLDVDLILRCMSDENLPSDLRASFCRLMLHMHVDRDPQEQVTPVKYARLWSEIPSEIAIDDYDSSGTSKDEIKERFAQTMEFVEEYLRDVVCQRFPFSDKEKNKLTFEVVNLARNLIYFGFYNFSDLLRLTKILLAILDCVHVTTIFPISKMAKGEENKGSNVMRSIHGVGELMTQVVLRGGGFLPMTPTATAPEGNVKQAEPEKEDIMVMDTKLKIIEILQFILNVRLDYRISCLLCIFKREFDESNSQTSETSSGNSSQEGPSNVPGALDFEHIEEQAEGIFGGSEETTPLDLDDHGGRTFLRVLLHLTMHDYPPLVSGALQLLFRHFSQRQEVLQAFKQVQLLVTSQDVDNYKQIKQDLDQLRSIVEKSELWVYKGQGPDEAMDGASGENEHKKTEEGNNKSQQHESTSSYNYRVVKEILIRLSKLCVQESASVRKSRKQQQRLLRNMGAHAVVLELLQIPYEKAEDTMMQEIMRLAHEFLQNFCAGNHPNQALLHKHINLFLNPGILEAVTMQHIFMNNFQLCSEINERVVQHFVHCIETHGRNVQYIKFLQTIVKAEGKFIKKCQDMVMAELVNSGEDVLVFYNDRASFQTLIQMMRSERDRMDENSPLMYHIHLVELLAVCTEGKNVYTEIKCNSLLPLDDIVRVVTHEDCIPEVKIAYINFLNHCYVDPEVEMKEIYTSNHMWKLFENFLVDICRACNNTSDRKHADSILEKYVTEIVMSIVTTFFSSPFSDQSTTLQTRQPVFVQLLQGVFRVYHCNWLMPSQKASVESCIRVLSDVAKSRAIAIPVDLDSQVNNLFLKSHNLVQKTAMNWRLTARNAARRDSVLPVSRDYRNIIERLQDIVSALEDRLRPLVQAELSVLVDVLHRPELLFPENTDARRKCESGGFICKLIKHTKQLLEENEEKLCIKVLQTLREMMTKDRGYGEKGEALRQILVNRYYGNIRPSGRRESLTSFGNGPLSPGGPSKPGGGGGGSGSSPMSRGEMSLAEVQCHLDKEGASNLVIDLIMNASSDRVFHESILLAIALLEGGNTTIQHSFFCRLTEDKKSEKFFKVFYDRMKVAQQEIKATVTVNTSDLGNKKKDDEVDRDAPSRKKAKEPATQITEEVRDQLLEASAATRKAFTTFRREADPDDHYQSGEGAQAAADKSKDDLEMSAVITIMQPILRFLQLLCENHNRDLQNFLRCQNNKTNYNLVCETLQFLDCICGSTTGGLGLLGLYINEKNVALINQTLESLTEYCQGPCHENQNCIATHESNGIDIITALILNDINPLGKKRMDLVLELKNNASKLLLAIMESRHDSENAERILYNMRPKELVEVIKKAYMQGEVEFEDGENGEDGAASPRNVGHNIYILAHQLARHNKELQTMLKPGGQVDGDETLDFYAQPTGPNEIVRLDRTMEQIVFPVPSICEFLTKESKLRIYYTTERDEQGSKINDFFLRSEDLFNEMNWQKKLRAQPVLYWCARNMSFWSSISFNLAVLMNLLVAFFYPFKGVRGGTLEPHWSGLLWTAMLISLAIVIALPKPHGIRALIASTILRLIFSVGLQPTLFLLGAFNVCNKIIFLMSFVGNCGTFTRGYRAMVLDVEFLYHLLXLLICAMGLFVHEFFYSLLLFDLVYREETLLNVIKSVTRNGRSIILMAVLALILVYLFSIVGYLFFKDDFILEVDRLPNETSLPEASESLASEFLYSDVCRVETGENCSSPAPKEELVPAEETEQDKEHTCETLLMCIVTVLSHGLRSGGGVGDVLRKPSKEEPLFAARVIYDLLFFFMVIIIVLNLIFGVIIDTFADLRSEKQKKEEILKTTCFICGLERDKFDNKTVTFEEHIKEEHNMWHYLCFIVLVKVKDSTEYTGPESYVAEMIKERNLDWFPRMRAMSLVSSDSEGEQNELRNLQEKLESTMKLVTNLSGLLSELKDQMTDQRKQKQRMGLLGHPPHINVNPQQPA
Description: Bovine cerebellum microsomal fractions, which are a rich source of IP3 binding protein, were prepared and used for [^3 H]IP3 binding assay. […] The IC50 of D-IP3 was about 8 nM.
At this point, the crude photolysis product from 100 pmol V-16 was equivalent in binding activity to 32 pmol of authentic IP3. […] The absolute stereochemistry of V-3 and its diastereomer was thus assigned.

[2] = test system: P388D1 macrophage-like cells; test: [Ca2+]i response before and after UV uncaging, fluo-3; type: cell-based; conditions: PAF 100 nM, ionomycin 5 μM
Description: The cells were loaded with fluo-3/AM. During the experiment the cells were bathed in HBS buffered with 20 mM Hepes at pH 7.4 and supplemented with 2 g/L glucose.
Another example was carried out in P388D1 macrophage-like cells.
Studies by Asmis et al. (92) have shown that, in P388D1 macrophage-like cells, PAF stimulated PGE2 production is mediated through two separate signals: IP3 induced [Ca^2+ ]i increase and another unidentified signal. IP3 -CPM might serve as a new tool for detailed study of PGE2 formation and AA release in relation to IP3 and [Ca^2+ ]i in these cells. One of the major advantages of using permeant IP3 derivatives is that experiments can be easily carried out in a population of cells, which is required for the measurement of AA release and PGE2 formation.

[3] = test system: 1321N1 astrocytoma cells; test: as above; type: cell-based; conditions: for [Ca2+]i response after uncaging of IP3-CPM: Ca2+ free medium
Description: (b) Same experiment as (a) except done in Ca^2+ free medium (DPBS, O Ca^2+, 0.5 mM EGTA). UV exposure of the cells treated with IP3 -CPM still gave the same response, showing that the [Ca^2+ ]i increase resulted from the release of Ca^2+ from internal stores. […] The cells were loaded with fluo-3/AM. During the experiment the cells were bathed in HBS buffered with 20 mM Hepes at pH 7.4 and supplemented with 2 g/L glucose.
The [Ca^2+ ]i was monitored using the calcium indicator fluo-3 rather than fura-2 to keep the excitation wavelength of the indicator (490 nm) far from the uncaging wavelength (360 nm) of DMNB group. […] Compared to the photolyzing set-up (direct illumination by a hand mercury lamp) used for the IP3 -binding assay, the optical throughput from the source lamp to the specimen is much higher in a microscope, so 10 seconds (as opposed to 2 hours in IP3 binding assay) of photolysis was sufficient to produce enough IP3 to elicit [Ca^2+ ]i increase. The same amount of UV alone had no effect at all on [Ca^2+ ]i in cells not treated with IP3 -CPM. After recovering from uncaging of IP3 -CPM, the cells responded to subsequent carbachol and thapsigargin stimulation normally.
This confirmed that the [Ca^2+ ]i increase due to uncaging of IP3 -CPM resulted from internal Ca^2+ release, which was consistent with the normal mechanism of IP3 action.

[4] = test system: intestinal cell line T84; test: cells; type: cell-based; conditions: 0.2 h; T84, ISC 12 min after addition; read-out: EC50 (chloride secretion)
Description: A convenient test system is the intestinal cell line T84, in which chloride secretion can be continuously monitored by mounting confluent monolayers of cells in Ussing chambers (42).

[5] = test system: 1321N1 astrocytoma cells; test: [Ca2+]i response before and after UV uncaging, fluo-3; type: cell-based; conditions: with extracellular Ca2+, carbachol 200 μM, thapsigargin 100 nM, ionomycin 5 μM
[6] = test system: phosphatase; test: Intracellular retention and metabolic (phosphatase) stability; type: in vitro ADME
Description: In human embryonic kidney cells (HEK cells), the extracellular IP3 -CPM was washed away after the cells had been loaded with 50 μM of IP3 -CPM for 20 minutes. […] Cells in the same dish which had not been exposed to UV light were kept in the dark for over 6 hours. […] However, pretreatment of IP3 -CPM with acetic acid will unmask the 3-hydroxyl and enable the intracellular phosphorylation of delivered IP3.

[7] = test system: 1321N1 astrocytoma cells; test: Cytosolic free Ca2+ imaging, fura-2; type: cell-based
Description: Biological tests on 1321N1 astrocytoma cells were performed similarly to the tests on REF-52 cells (71). The concentration of Cytosolic free Ca^2+ (ordinate, in units of μM) in fura-2-loaded 1321N1 astrocytoma cells is shown as a function of time (abscissa, in units of seconds). At the dotted vertical line labeled 1, 20 μM inositol-1,4,5-triphosphate propionyloxymethyl ester (5a, R=Et, R'=H) was added. […] Subsequently the cells could respond to carbachol (200 μM, delivered at the dotted vertical line labeled 2), a drug that stimulates the endogenous generation of inositol-1,4,5-triphosphate. However, the response to carbachol is depressed by the prior treatment with the inositol-1,4,5-triphosphate propionyloxymethyl ester. Likewise the Ca^2+ response to thapsigargin (100 nM, delivered at the dotted vertical line labeled 3), another drug that releases stored Ca^2+, is depressed.
A test similar to the one shown in FIG. 7 was conducted except that the medium lacked extracellular Ca^2+ and a dose of 60 μM inositol-1,4,5-triphosphate propionyloxymethyl ester was added at the dotted vertical line labeled 1. […] Because no extracellular Ca^2+ was present, this response must have represented release from intracellular Ca^2+ stores. […] The much greater degree of inhibition of the carbachol response compared to the previous example (FIG. 7) is due to the higher dose of the inositol-1,4,5-triphosphate propionyloxymethyl ester and the absence of extracellular Ca^2+, which reduces refilling of Ca^2+ stores.
In a further example, the same test as set forth above was conducted with astrocytoma cells, except that 2 μM inositol-1,4,5-triphosphate butyryloxymethyl ester (5a, R=Pr, R'=H) was used instead of the propionyloxymethyl ester.

[8] = test system: REF-52 fibroblasts; test: Cytosolic free Ca2+ imaging, fura-2; type: cell-based
Description: The best-established biological effect of IP3 is to release Ca^2+ from internal stores (26), so IP3 /PM (5a, R=Et, R'=H) was tested by imaging cytosolic free Ca^2+ levels in single REF-52 fibroblasts using standard methodology (58). Cells were loaded with the Ca^2+ -indicator fura-2 and viewed by fluorescence excitation ratioing. IP3 /PM (40 μM) was applied extracellularly while monitoring cytosolic Ca^2+ concentrations.

[9] = 20 μM compound, with extracellular Ca2+

Question: How did the “affinity to IP3 R / binding to cerebellar microsomes (in words)” value [1] turn out when `O=P(O)(O)O[C@@H]1[C@@H](O)[C@H](OP(=O)(O)O)[C@@H](OP(=O)(O)O)[C@H](O)[C@@H]1O` [L-IP3, reference compound] was run?
Answer: The value was “negligible affinity”.

Question: `CCCCCCCCCCCCCCCCOC[C@H](COP(=O)([O-])OCC[N+](C)(C)C)OC(C)=O` [PAF, reference compound] was tested. Which “[Ca2+]i response after uncaging of IP3-CPM” value [2] did it give?
Answer: Its value is “smaller [Ca^2+ ]i increase; also recorded: attenuated response”.

Question: How did the incubation time required ([3]; astrocytes, response similar to IP3-CPM) turn out when `COc1cc(CO[C@@H]2[C@@H](OP(=O)(OCOC(C)=O)OCOC(C)=O)[C@H](OP(=O)(OCOC(C)=O)OCOC(C)=O)[C@H]3OC(OC)O[C@H]3[C@H]2OP(=O)(OCOC(C)=O)OCOC(C)=O)c([N+](=O)[O-])cc1OC` (stereo partly drawn) [IP3 -CAM, D-2,3-O-methoxymethylene-6-O-(4,5-dimethoxy-2-nitrobenzyl)-myo-inositol 1,4,5-trisphosphate hexakis(acetoxymethyl)ester] was run?
Answer: Its incubation time required is “more than 15 minutes”.

Question: `O=P(O)(O)O[C@@H]1[C@H](O)[C@H](O)[C@@H](OP(=O)(O)O)[C@H](OP(=O)(O)O)[C@H]1O` [D-IP3, myo-inositol 1,4,5-triphosphate, reference compound] was tested. Which IC50 ([1]; cerebellar microsomes, read-out: IC50, inhibition of [3H]IP3 binding) did it give?
Answer: Its IC50 is ~0.008 µM.

Question: With `Nc1ncnc2c1nc(Sc1ccc(Cl)cc1)n2[C@@H]1O[C@@H]2COP(=O)(O)O[C@H]2[C@H]1O` [Compound 8-pCPT-cAMP, 8-para-chlorophenylthio (cCPT) cAMP, reference compound] as the compound, how does the EC50 [4] read?
Answer: Its EC50 is 100 µM.

Question: What does the source list for `C[C@H](CCC(=O)O)C[C@H](C)C[C@H](C)C(=O)/C=C(\O)[C@H](C)C[C@H](C)C/C=C/[C@@H](C)[C@@H](O)[C@@H](C)[C@@H](O)C[C@@H]1CC[C@@](C)([C@H]2CC[C@@](C)([C@@H](C)O)O2)O1` [Ionomycin, reference compound]?
Answer: [Ca2+]i response after uncaging of IP3-CPM [3]: small and transient [Ca^2+ ]i increase; also recorded: additional small [Ca^2+ ]i increase; [Ca2+]i response after uncaging of IP3-CPM [2]: huge [Ca^2+ ]i increase; [Ca2+]i response after recovery from uncaging of IP3-CPM [5]: further raised [Ca^2+ ]i to a saturating level; also recorded: huge [Ca^2+ ]i increase

Question: How did the “amount of authentic IP3 equivalent in binding activity to crude photolysis product from 100 pmol V-16” value ([1]; after about 2 h photolysis) turn out when `COc1cc(CO[C@@H]2[C@@H](OP(=O)(O)O)[C@H](OP(=O)(O)O)[C@H]3OC(OC)O[C@H]3[C@H]2OP(=O)(O)O)c([N+](=O)[O-])cc1OC` (stereo partly drawn) [Compound V-16, D-2,3-O-methoxymethylene-6-O-(4,5-dimethoxy-2-nitrobenzyl)-myo-inositol 1,4,5-trisphosphate] was run?
Answer: The value was 32 pmol.

Question: What about the “binding to the receptor upon photolysis” value ([1]; photolysis at 366 nm) of the same compound?
Answer: The value was “UV-dose-dependent increase of binding”.

Question: And the “time at which binding leveled off on photolysis” value ([1]; photolysis at 366 nm)?
Answer: Its value is “about 2 hours”.

Question: What about the “affinity to IP3 R / binding to cerebellar microsomes (in words)” value [1] of the same compound?
Answer: The value was “negligible binding”.

Question: What about the “releasing Ca2+ without photolysis” value ([3]; caged IP3 analog released inside cells) of the same compound?
Answer: Its value is “inactive in releasing Ca^2+”.

Question: And the “phosphatase degradation / metabolic stability (in words)” value ([6]; in cells)?
Answer: The value was “metabolically fairly stable; also recorded: fairly resistant to phosphatase degradation”.

Question: And the “retention in cells (in words)” value ([6]; in cells)?
Answer: Its value is “well retained in cells; also recorded: could be trapped inside cells for a long period of time without losing much of its activity”.

Question: Which results are given for `CCCC(=O)OCOP(=O)(OCOC(=O)CCC)O[C@@H]1[C@H](O)[C@H](O)[C@@H](OP(=O)(OCOC(=O)CCC)OCOC(=O)CCC)[C@H](OP(=O)(OCOC(=O)CCC)OCOC(=O)CCC)[C@H]1O` [IP3 /BM, D-myo-inositol-1,4,5-triphosphate butyryloxymethyl ester]?
Answer: Ca2+ elevation, potency compared with propionyloxymethyl ester ([7]; 2 μM, with extracellular Ca2+): somewhat more potent; time course compared with propionyloxymethyl ester ([7]; 2 μM, with extracellular Ca2+): slower to appear and decay

Question: `C/C=C(/C)C(=O)O[C@H]1C(C)=C2[C@H]([C@@H]1OC(=O)CCCCCCC)[C@@](C)(OC(C)=O)C[C@H](OC(=O)CCC)[C@@]1(O)[C@H]2OC(=O)[C@@]1(C)O` [thapsigargin] was tested. Which “[Ca2+]i response after uncaging of IP3-CPM” value [3] did it give?
Answer: Its value is “able to cause further Ca^2+ release”.

Question: And the “[Ca2+]i response after recovery from uncaging of IP3-CPM” value (shortened to “[Ca2+]i response after recovery”) [5]?
Answer: The value was “normally; also recorded: normal response”.

Question: With `C[N+](C)(C)CCOC(N)=O` [Carbachol] as the compound, how does the “[Ca2+]i response after uncaging of IP3-CPM” value [3] read?
Answer: Its value is “able to cause further Ca^2+ release”.

Question: And the “[Ca2+]i response after recovery” value [5]?
Answer: The value was “normal response”.

Question: And the “[Ca2+]i response after recovery” value ([5]; listed as carbachol)?
Answer: The value was “normally”.

Question: For `COC1O[C@@H]2[C@@H](OP(=O)(O)O)[C@H](OP(=O)(O)O)[C@@H](O)[C@H](OP(=O)(O)O)[C@@H]2O1` (stereo partly drawn) [D-2,3-methoxymethylene-myo-inositol 1,4,5-trisphosphate], which “affinity for IP3 receptor, fold weaker than IP3” value ([1]; assuming 100% chemical yield of uncaged product) is on record?
Answer: Its value is 3 fold.

Question: What about the “affinity to IP3 R relative to IP3” value ([1]; photolysis product) of the same compound?
Answer: The value was “at least one third”.

Question: What about the “internal Ca2+ release upon photolysis (in words)” value ([3]; photolysis product of V-16 in cells) of the same compound?
Answer: The value was “induced internal Ca^2+ release”.

Question: And the “phosphorylation into 1,3,4,5-IP4 (in words)” value [6]?
Answer: The value was “can not be phosphorylated into 1,3,4,5-IP4”.

Question: Which results are given for `CCC(=O)OCOP(=O)(OCOC(=O)CC)O[C@@H]1[C@H](O)[C@H](O)[C@@H](OP(=O)(OCOC(=O)CC)OCOC(=O)CC)[C@H](OP(=O)(OCOC(=O)CC)OCOC(=O)CC)[C@H]1O` [IP3 /PM, D-myo-inositol-1,4,5-triphosphate propionyloxymethyl ester]?
Answer: effect of subsequent vasopressin after compound ([8]; REF-52, 40 μM compound): much less effect than normal; cytosolic Ca2+ concentration ([8]; REF-52, 40 μM extracellular): increased rapidly; Ca2+ release from internal stores (in words) ([8]; intact REF-52 fibroblasts and astrocytoma cells): released Ca^2+ from internal stores; response to subsequent carbachol (200 μM) [7, 9]: depressed; response to subsequent thapsigargin (100 nM) [7, 9]: depressed; delay of Ca2+ elevation ([7]; 20 μM, with extracellular Ca2+): about 100 second; elevation of cytosolic Ca2+ ([7]; 20 μM, with extracellular Ca2+): sizable elevation of cytosolic Ca^2+; response to subsequent carbachol (200 μM) ([7]; 60 μM compound, no extracellular Ca2+): greatly depressed; delay of Ca2+ elevation ([7]; 60 μM, no extracellular Ca2+): ~50 s; elevation of cytosolic Ca2+ ([7]; 60 μM, no extracellular Ca2+): sizable elevation of cytosolic Ca^2+
